The source of these data is patent US4840935A, “Peptide amino-alcohol derivatives containing a tetrasubstituted carbon atom, inhibiting renin and acid proteases, process for obtention and therapeutical use” (Sanofi, priority 1985, dated 1989).

Square brackets hold non-standard residues; d marks the D form. Peptide text beside a SMILES is read from it. * marks the point of attachment. ξ: configuration not given here. Propanoyl(3-(3-pyridyl)) = O=C(CCc1cccnc1)*; His(τ-Me) = Cn1cnc(C[C@H](N)C(=O)O)c1; Sta = CC(C)C[C@H](N)[C@@H](O)CC(=O)O; NHC(Me)(CH2OH)2 = CC(CO)(CO)N*; NHC(CH2OH)3 = OCC(CO)(CO)N*; ξ3Pal = NC(Cc1cccnc1)C(=O)O; Isovaleryl = CC(C)CC(=O)*; Nle = CCCC[C@H](N)C(=O)O; Boc = CC(C)(C)OC(=O)*; X2 = OCC1(N*)CCCCC1; X1 = CC(C)(CO)N*

For orientation: IC50 means the concentration that gives 50% inhibition.

For test [1], the target named is T1, human plasma renin activity (PRA) (Homo sapiens, UniProt P00797).
T1 construct: from tissue; host or cells: human plasma pool
T1 sequence (P00797 67-406): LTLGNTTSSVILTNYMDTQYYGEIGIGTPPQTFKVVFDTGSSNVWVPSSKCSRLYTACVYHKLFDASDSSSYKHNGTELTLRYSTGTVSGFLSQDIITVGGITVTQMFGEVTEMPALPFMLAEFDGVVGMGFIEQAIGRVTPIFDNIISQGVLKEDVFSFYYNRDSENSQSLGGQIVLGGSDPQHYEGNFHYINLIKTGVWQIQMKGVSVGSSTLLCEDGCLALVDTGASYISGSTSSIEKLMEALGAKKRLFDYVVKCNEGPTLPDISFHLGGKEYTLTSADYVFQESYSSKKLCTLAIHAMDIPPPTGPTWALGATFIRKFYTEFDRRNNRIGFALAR
Briefly: Inhibition of human plasma renin activity (PRA), angiotensin I released measured by radioimmunoassay. The conditions noted are these: human plasma pool, 60 minutes at 37° C., phosphate buffer pH 7.4; IC50 evaluated in mol, expressed as -log IC50. In kind it is biochemical. The procedure: The products according to the invention were studied for their therapeutic properties and especially their inhibitory action on enzymes. More particularly, the compounds were evaluated "in vitro" in terms of their inhibition of human plasma renin activity (PRA).
The method of evaluation is based on that of GUYENE (J. Clin. Endocrinol. Metab., 1976, 43, 1301). The inhibition of PRA is evaluated from a human plasma pool rich in renin ([…] of angiotensin I released per milliliter per hour), incubated for 60 minutes at 37° C., in a phosphate buffer at pH 7.4, in the presence of increasing concentrations of the product to be studied.
Human plasma contains the substrate angiotensinogen and the enzyme:renin. The angiotensin I released during the reaction is measured by radioimmunoassay: Plasma Renin Activity Kit from Travenol (nos. CA 533, 553). An inhibitor of the conversion enzyme, phenylmethylsulfonyl fluoride (PMSF), is added to the incubation medium. The total incubation volume is 555 microliters made up as follows:
420 microliters of human plasma
11 to 50 microliters of the product to be studied, at variable concentrations
119 to 80 microliters of phosphate buffer 5 microliters of PMSF.
A 1N solution of acetic acid in methanol (19/1 by volume) and a 1N solution of sodium hydroxide in methanol (2/1 by volume) are prepared. In a mixture of equal volumes of these 2 solutions, a 0.001M stock solution of the product to be studied is prepared. The subsequent dilutions are then made up in the phosphate buffer.
The results are expressed as their logarithmic value (-log IC50).

A further test addresses T2, renin (Homo sapiens, UniProt P00797).
T2 sequence (P00797 67-406): T1 sequence (P00797 67-406)
The following applies: cited from earlier work.

As for `CCCC[C@H](NC(=O)[C@H](Cc1ccccc1)NC(=O)CCc1cccnc1)C(=O)N[C@@H](Cc1ccccc1)[C@@H](O)CC(=O)N[C@H](C(=O)NC(CO)(CO)CO)[C@@H](C)CC` [SR 43 603], the IC50 in test [1] is 0.479 nM.
On the same count and under the same terms, the result for `CCCC[C@H](NC(=O)[C@H](Cc1ccccc1)NC(=O)OC(C)(C)C)C(=O)N[C@@H](Cc1ccccc1)[C@@H](O)CC(=O)N[C@H](C(=O)NC(CO)(CO)CO)[C@@H](C)CC` [SR 43 576] reads 3.98 nM; that for `CCCC[C@H](NC(=O)[C@H](Cc1ccccc1)NC(=O)OC(C)(C)C)C(=O)N[C@@H](CC(C)C)[C@@H](O)CC(=O)N[C@H](C(=O)NC1(CO)CCCCC1)[C@@H](C)CC` [SR 43 799] (Boc-F[Nle][Sta]I-X2), 5.5 nM; that for `CCCC[C@H](NC(=O)[C@H](Cc1ccccc1)NC(=O)OC(C)(C)C)C(=O)N[C@@H](CC(C)C)[C@@H](O)CC(=O)N[C@H](C(=O)NC(CO)(CO)CO)[C@@H](C)CC` [SR 44 094] (Boc-F[Nle][Sta]I-{NHC(CH2OH)3}), 18.2 nM.
Still for that read-out and setting: the result for `CCCC[C@H](NC(=O)[C@H](Cc1ccccc1)NC(=O)OC(C)(C)C)C(=O)N[C@@H](CC(C)C)[C@@H](O)CC(=O)N[C@H](C(=O)NC(C)(CO)CO)[C@@H](C)CC` [SR 43 574] (Boc-F[Nle][Sta]I-{NHC(Me)(CH2OH)2}) reads 2.63 nM; that for `CCCC[C@H](NC(=O)[C@H](Cc1ccccc1)NC(=O)OC(C)(C)C)C(=O)N[C@@H](CC(C)C)[C@@H](O)CC(=O)N[C@H](C(=O)NC(C)(C)CO)[C@@H](C)CC` [SR 43 686] (Boc-F[Nle][Sta]I-X1), 6.03 nM; that for `CCCC[C@H](NC(=O)[C@H](Cc1ccccc1)NC(=O)CCc1cccnc1)C(=O)N[C@@H](CC(C)C)[C@@H](O)CC(=O)N[C@H](C(=O)NC(C)(CO)CO)[C@@H](C)CC` [SR 43 707] ({Propanoyl(3-(3-pyridyl))}-F[Nle][Sta]I-{NHC(Me)(CH2OH)2}), 3.55 nM.
As for `CC[C@H](C)[C@H](NC(=O)C[C@H](O)[C@H](CC1CCCCC1)NC(=O)[C@H](Cc1nc2ccccc2[nH]1)NC(=O)[C@H](Cc1ccccc1)NC(=O)OC(C)(C)C)C(=O)NC(C)(CO)CO` [SR 44 125], in test [1], the IC50 is 36.3 nM.
On to `CC[C@H](C)[C@H](NC(=O)C[C@H](O)[C@H](CC(C)C)NC(=O)C(Cc1cccnc1)NC(=O)[C@H](Cc1ccccc1)NC(=O)OC(C)(C)C)C(=O)NC(C)(CO)CO` (some centres unmarked) [SR 43 763] (Boc-F[ξ3Pal][Sta]I-{NHC(Me)(CH2OH)2}), for which the half-inhibitory concentration (IC50) in test [1] is 77.6 nM.
Consider `CC(C)CC(=O)N[C@H](C(=O)N[C@H](C(=O)N[C@@H](CC(C)C)[C@@H](O)CC(=O)N[C@@H](C)C(=O)N[C@@H](CC(C)C)[C@@H](O)CC(=O)O)C(C)C)C(C)C` [Pepstatin, isovaleryl-L-valyl-L-valyl-statyl-L-alanyl-statin] (Isovaleryl-VV[Sta]A[Sta]-OH), for which the affinity for renin entry at renin is “low affinity for renin”.
In the case of `CC[C@H](C)[C@H](NC(=O)C[C@H](O)[C@H](CC(C)C)NC(=O)[C@H](Cc1c[nH]cn1)NC(=O)[C@H](Cc1ccccc1)NC(=O)CCc1cccnc1)C(=O)NC(C)(CO)CO` [SR 43 737] ({Propanoyl(3-(3-pyridyl))}-FH[Sta]I-{NHC(Me)(CH2OH)2}), the IC50 in test [1] is 2.14 nM.
Regarding `CCCC[C@H](NC(=O)[C@H](Cc1ccccc1)NC(=O)OC(C)(C)C)C(=O)N[C@@H](CC(C)C)[C@@H](O)CC(=O)N[C@@H](C)C(=O)NC(C)(C)CO` [SR 43 860] (Boc-F[Nle][Sta]A-X1), the IC50 in test [1] is 33.1 nM.
The same measure, in the same setting: the result for `CCCC[C@H](NC(=O)[C@H](Cc1ccccc1)NC(=O)OC(C)(C)C)C(=O)N[C@@H](CC1CCCCC1)[C@@H](O)CC(=O)N[C@H](C(=O)NC(C)(CO)CO)[C@@H](C)CC` [SR 43 721] reads 7.76 nM.
On the same count and under the same terms, the result for `CC[C@H](C)[C@H](NC(=O)C[C@H](O)[C@H](CC(C)C)NC(=O)[C@H](Cc1cn(C)cn1)NC(=O)[C@H](Cc1ccccc1)NC(=O)CCc1cccnc1)C(=O)NC(C)(C)CO` [SR 43 966] ({Propanoyl(3-(3-pyridyl))}-F[His(τ-Me)][Sta]I-X1) reads 19.1 nM.
